# Data as given in patent US11541065B2, “Compositions and methods for treating brain injury” (UNM RAINFOREST INNOVATIONS, priority 2018, dated 2023).
# How the values were obtained:
# IκB = IκB degradation in rat neuronal cultures (immunoblot); assay type: cell-based; details: rat neurons, homocysteine 50 μM, four hours, alone
# Procedure: Rat and mice neuronal cultures were washed with PBS (pH 7.4), containing sodium pyrophosphate and sodium vanadate as phosphatase inhibitors, and harvested in SDS sample buffer (Laemmli, 1970, Nature 227:680-685). Equal protein from total cell lysates, estimated using BCA kit, was resolved by SDS-PAGE (7.5%) followed by western blotting on PVDF membranes. Immunoblot analysis was performed by first blocking with 5% non-fat dry milk for 1 h at room temperature followed by incubation with either COX2 immunoblot analysis (Poddar and Paul, 2009, J Neurochem 110:1095-1106) as described in each experiment. All primary antibodies and horseradish peroxidase conjugated secondary antibodies were used according to manufacturer's recommendations. Signals from immune complexes in the blots were developed using West Pico supersignal chemiluminescence reagents and then captured on X-ray films. Densitometric analysis of the images was performed using the NIH Image J software.
# [1] = Total plasma homocysteine after osmotic pump implantation, mice (HPLC); assay type: in vivo, WT and GluN2A-KO mice; details: mouse, subcutaneous, 200 mM solution (200 μl osmotic pump, flow rate 1 μl/hr), osmotic pump with 200 mM L-homocysteine; for concentration at 5 day: day 5
# Procedure: L-homocysteine (200 mM) was freshly prepared by alkali hydrolysis of L-homocysteine thiolactone hydrochloride followed by neutralization, and maintained in 0.02 mM of N-Tris(hydroxymethyl)methyl-2-aminoethanesulfonic acid buffer pH 7.4 as previously described (Poddar et al., 2001, Circulation, 103:2717-2723). Osmotic pumps (Alzet, 2ML1, flow rate 10 μl/hr; Durect Corp., Cupertino, Calif.) containing either 2 ml of freshly prepared 200 mM L-homocysteine (for hyperhomocysteinemia) or normal saline (for control) were surgically implanted subcutaneously on the back and posterior to the scapulae of male Wistar rats under anesthesia (2% isoflurane in medical grade oxygen). The incision was closed after implantation and the rats were allowed to recover in their cage. For both WT and GluN2A-KO mice, osmotic pumps (Alzet, 2001, flow rate 1 μl/hr; Durect Corp., Cupertino, Calif.) containing either 200 μl of freshly prepared 200 mM L-homocysteine (for hyperhomocysteinemia) or normal saline (for control) were implanted similarly.
# Blood was obtained from rats (retro-orbital) and mice (cardiac puncture) under anesthesia with 2% isoflurane in medical grade oxygen, before installation of osmotic pumps (0 day) and at various time points after installation of osmotic pumps (rats: day 3, day 5, and day 7; mice: day 3 and day 5). Blood was collected in standardized VACUTAINER venous blood collection EDTA-tubes (ThermoFisher Scientific, Inc., Waltham, Mass.) and centrifuged at 3,500 rpm for 15 minutes. The plasma obtained was analyzed for total plasma homocysteine levels using high performance liquid chromatography with post-column fluorescence detection as previously described (Gilfix et al., 1997, Clin Chem 43:687-688; Jacobsen et al., 1994, Clin Chem 40:873-881; Miller et al., 2013, Am J Clin Nutr 97:827-834).
# ERK MAPK = ERK MAPK phosphorylation in WT and GluN2A-KO mouse neuron cultures (immunoblot); assay type: cell-based, mice; details: L-homocysteine 50 μM
# Text: Primary cortical neuronal cultures were established from embryos obtained from pregnant Sprague Dawley female rats (16-17 day gestation) as previously described (Podder and Paul, 2009, J Neurochem 110:1095-1106; Poddar and Paul, 2013, J Neurochem 124: 558-570). Primary cortical neuronal cultures were also developed from pregnant wildtype or GluN2A-knockout mice (15-16 day gestation) using similar protocols. The cells were maintained in culture for 12-14 days prior to treatment with homocysteine. L-homocysteine (200 mM stock) was prepared by alkali hydrolysis of L-homocysteine thiolactone hydrochloride followed by neutralization with 2N HCL and maintained in 0.02 mM N-Tris(hydroxymethyl)methyl-2-aminoethanesulfonicd acid (TES) buffer pH 7.4 (Poddar et al., 2001, Circulation 103:2717-2723). For receptor stimulation neurons were treated with freshly prepared 50 μM of L-homocysteine in Hank's balanced salt solution (Podder and Paul, 2009, J Neurochem 110:1095-1106; Poddar and Paul, 2013, J Neurochem 124: 558-570) containing 50 μM of glycine (Lipton et al., 1997, Proc Natl Acad Sci USA 94:5923-5928). In a subset of culture plates, pharmacological inhibitors (NVP-AAM007) were added […] prior to homocysteine addition and maintained during homocysteine treatment. Cells were processed for immunoblotting or Hoechst DNA staining.
# Equal protein from total cell lysates obtained from rat and mice neuronal cultures were resolved in 7.5% SDS-PAGE, and subjected to immunoblotting procedure as described earlier (Podder and Paul, 2009, J Neurochem 110:1095-1106). Blots were analyzed with antibodies as described in each experiment. All primary antibodies (anti-pERK, anti-ERK) and secondary-horse radish peroxidase conjugated antibody concentrations were used according to recommendations provided by the manufacturer. Signals from immune complexes in the blots were developed using West Pico supersignal chemiluminescence reagents and then captured on X-ray films. Densitometric analysis of the images was performed using the Image J software.
# Embryos obtained from pregnant Sprague Dawley rats (16-17-day gestation) or wild type (WT) and GluN2A KO mice (15-16-day gestation) were used to establish primary cortical neuronal cultures as previously described (Poddar and Paul, 2009, J Neurochem 110:1095-1106; Poddar and Paul, 2013, J Neurochem 124:558-570; Poddar et al., 2017, J Neurochem 142:560-573). Neurons were grown on either (a) 35-mm culture dishes (MatTek Corp., Ashland, Mass.) coated overnight with poly-D-lysine (50 μg/ml) and laminin (10 μg/ml) for Ca^2+ imaging studies, (b) poly-D-lysine-coated 60 mm dishes (Corning BIOCOAT, Corning Inc., Corning, N.Y.) for biochemical studies, or (c) poly-D-lysine-coated 4-well culture slides (Corning BIOCOAT, Corning Inc., Corning, N.Y.) for cell death assay. Neurons were maintained in culture for 12-13 days before experiment. The cells were treated with freshly prepared L-homocysteine (50 μM) in Hank's balanced salt solution containing 50 μM of glycine (Lipton et al., 1997, Proceedings of the National Academy of Sciences of the United States of America 94:5923-5928; Poddar and Paul, 2009, J Neurochem 110:1095-1106; Poddar and Paul, 2013, J Neurochem 124:558-570; Poddar et al., 2017, J Neurochem 142:560-573) for the specified time periods. In a parallel series of experiments, cells were treated with glutamate (50 μM) for the specified time periods. Cells were then processed for live cell imaging, immunoblotting or cell death assay. […]
smiles,measurement,setting,value
N[C@@H](CCS)C(=O)O [L-homocysteine],cellular level of IκB,IκB,significant decrease in the cellular level of IκB
same,concentration at 3 day,"[1]; GluN2A-KO mice, day 3, day 0 5.72±0.33 μM",18.5 ± 2.55 µM
same,concentration at 5 day,[1]; GluN2A-KO mice,15.9 ± 2.09 µM
same,concentration at 3 day,"[1]; WT mice, day 3, day 0 6.6±0.73 μM",19 ± 1.68 µM
same,concentration at 5 day,[1]; WT mice,16.7 ± 1.73 µM
same,ERK MAPK phosphorylation,"ERK MAPK; neurons from GluN2A KO mice, 30 or 60 minutes",fails to induce ERK MAPK phosphorylation
same,ERK MAPK phosphorylation,"ERK MAPK; neurons from GluN2A-KO mice, four hours",remains unchanged
same,ERK MAPK phosphorylation,"ERK MAPK; neurons from WT mice, 30 or 60 minutes",sustained increase in ERK MAPK phosphorylation
same,ERK MAPK phosphorylation,"ERK MAPK; neurons from WT mice, four hours",significant increase in ERK MAPK phosphorylation
